From PMC11237553, “De novo synthetic antimicrobial peptide design with a recurrent neural network” (Protein Science : A Publication of the Protein Society, 2024) come the findings set out here.

The experiment deals with Escherichia coli ATCC 25922. The experiment in a line: Broth microdilution antimicrobial susceptibility testing (MIC/MBC). Type of experiment: cell-based. Particulars: one maximum and one minimum data point dropped; for MIC, E. coli ATCC 25922: broth microdilution (CLSI, adapted for cationic AMPs), Mueller‐Hinton Broth, 5 ± 3 × 10^5 CFU/mL, 20–24 h at 37°C, test range 128 down to 0.25 μg/mL, lowest effective concentration range in three independent experiments in duplicate; for MBC, E. coli ATCC 25922: concentration killing 99.9% of the inoculum, plated from MIC wells, 24 h at 37°C, range in three independent experiments in duplicate. As to the method: Bacteria from frozen stocks were streaked onto non‐selective Columbia blood agar with 5% sheep blood (Oxoid) and incubated for 18–24 h at 37°C. The following day, 2–4 colonies were streaked onto a new agar plate and incubated for 18–24 h at 37°C to ensure uniform colony health prior to the assay. A standardized bacterial inoculum was prepared by suspending isolated colonies in Mueller‐Hinton Broth (MHB; Sigma‐Aldrich, St. Louis, MO, USA). The suspension was adjusted to an optical density of 0.08–0.1 at 600 nm, equivalent to a 0.5 McFarland standard of approximately 1–2 × 10^8 CFU/mL (CFU: colony forming units). The inoculum was then diluted 1:250 to achieve a final concentration of 5 ± 3 × 10^5 CFU/mL. The target bacterial density was confirmed by examining the total viability counts from the final inoculum.
Candidate AMPs were purchased from and synthesized by GenScript (Piscataway, NJ, USA). These were received in lyophilized format and stored at −20°C, and were suspended in sterile ultrapure water prior to testing.
On the technique in general: Dilution methods test growth across graded concentrations, often in twofold steps.

RLPSIIPGIAGKLGGLLGGLLKGL [DeNo1027]: the “MIC, E. coli ATCC 25922” value worked out at 32 µg/mL and the “MBC, E. coli ATCC 25922” value lay in the range of 32 to 64 µg/mL.

Consider MLPSIAGAAAKGLPKLFCKITKKC [DeNo1038], for which the “MIC, E. coli ATCC 25922” value was determined as 64 µg/mL and the “MBC, E. coli ATCC 25922” value lay in the range of 64 to 128 µg/mL.

In the case of FLPKIAGKAAKKLPKIFCKITKKC [DeNo1019], the “MIC, E. coli ATCC 25922” value was 16 µg/mL and the “MBC, E. coli ATCC 25922” value was determined as 16 µg/mL.

KIFGKILKKLLKKLLKKLLKKL [DeNo1013]: the “MIC, E. coli ATCC 25922” value amounted to 16 µg/mL and the “MBC, E. coli ATCC 25922” value fell in the range of 16 to 32 µg/mL.

In the case of FLPKIFKKIAKKL [DeNo1045], the “MIC, E. coli ATCC 25922” value was determined as 64 µg/mL and the “MBC, E. coli ATCC 25922” value was in the range of 64 to 128 µg/mL.

With “TLPDVAKNVAKNVAKTVLDTLKCKITGKC [DeNo1020]”, the “MIC, E. coli ATCC 25922” value lay in the range of 64 to 128 µg/mL and the “MBC, E. coli ATCC 25922” value was 64 to 128 µg/mL.

KLPSIIKAAAKALPKLF [DeNo1034]: the “MIC, E. coli ATCC 25922” value lay within 16 to 32 µg/mL and the “MBC, E. coli ATCC 25922” value fell in the range of 16 to 64 µg/mL.
